Data set [1] has as its system mouse. The conditions noted are these: Subchronic oral toxicity in rodents, b6c3f1, Water, dose end: 10 week, group: systemic.
Data set [2] relates to mouse. The conditions noted are these: Carcinogenicity, b6c3f1, Oral, Water, dose end: 96 week, group: systemic.
Data set [3] has as its system rat. The conditions noted are these: Prenatal developmental toxicity study; sprague dawley; Oral; Gavage/Intubation; dose end: 15 GD; group: developmental; systemic / in life observation / body weight / fetal weight.
In data set [4] the test system is rat. The conditions noted are these: Carcinogenicity, fischer, Oral, Feed, dose end: 104 week, group: systemic.
The subject of data set [5] is mouse. The following applies: Carcinogenicity; b6c3f1; Oral; Feed; dose end: 78 week; group: systemic; systemic / in life observation / body weight / body weight + systemic / pathology microscopic / liver / carcinoma.
The subject of data set [6] is rat. The conditions noted are these: Carcinogenicity; other; Oral; Feed; dose end: 78 week; group: systemic; systemic / pathology microscopic / thyroid gland / adenoma + systemic / in life observation / clinical signs / abdominogenital staining + ….
The subject of data set [7] is mouse. The conditions noted are these: Combined chronic toxicity/carcinogenicity, other, Oral, Feed, dose end: 24 month, group: systemic.
The subject of data set [8] is dog. The following applies: Chronic toxicity, beagle, Oral, Feed, dose end: 52 week, group: systemic.
Data set [9] relates to rat. The following applies: Combined chronic toxicity/carcinogenicity, sprague dawley, Oral, Feed, dose end: 24 month, group: systemic.
Data set [10] deals with mouse. The following applies: Carcinogenicity, cd1, Oral, Feed, dose end: 18 month, group: systemic.
Data set [11] has as its system rat. The following applies: Prenatal developmental toxicity study, sprague dawley, Oral, Gavage/Intubation, dose end: 15 GD.
Data set [12] deals with rat. The conditions noted are these: Subchronic oral toxicity in rodents, sprague dawley, Feed, dose end: 90 day, group: systemic.
Data set [13] relates to rat. The following applies: Subchronic oral toxicity in rodents, sprague dawley, Gavage/Intubation, dose end: 90 day, group: systemic.
In data set [14] the test system is rat. The following applies: Prenatal developmental toxicity study, sprague dawley, Oral, Gavage/Intubation, dose end: 17 GD.
Data set [15] has as its system dog. The following applies: Sub-acute repeat dose toxicity, beagle, Oral, Gavage/Intubation, dose end: 4 week, group: systemic.
For data set [16], the system named is rabbit. The following applies: Prenatal developmental toxicity study, new zealand white, Oral, Gavage/Intubation, dose end: 19 GD.
Data set [17] concerns rat. The conditions noted are these: Sub-acute repeat dose toxicity, sprague dawley, Oral, Gavage/Intubation, dose end: 28 day, group: systemic.
For data set [18], the system named is rat. The conditions noted are these: Prenatal developmental toxicity study, sprague dawley, Oral, Gavage/Intubation, dose end: 17 GD. The source holds these as a separate data set.
Setting [19] is: systemic / in life observation / mortality / mortality + systemic / pathology microscopic / kidney / degeneration + systemic / pathology ….
Where [20] appears, read: systemic / organ weight / brain / relative to body weight.
[21] abbreviates: systemic / organ weight / brain / relative to body weight + systemic / organ weight / heart / relative to body weight + systemic / organ ….
Setting [22] is: systemic / pathology microscopic / parathyroid gland / hyperplasia.
The mark [23] stands for this setting: systemic / clinical chemistry / alanine aminotransferase (alt/sgpt) / alanine aminotransferase (alt/sgpt) + systemic / clinical chemistry / ….
Setting [24] is: systemic / in life observation / clinical signs / ataxia + systemic / pathology microscopic / brain / vacuolization.
The mark [25] stands for this setting: systemic / in life observation / clinical signs / ataxia + systemic / pathology microscopic / brain / vacuolization + systemic / in life ….
[26] abbreviates: systemic / clinical chemistry / gamma glutamyl transferase (ggt) / gamma glutamyl transferase (ggt).
The mark [27] stands for this setting: systemic / pathology microscopic / nerve / degeneration + systemic / pathology microscopic / spinal cord / degeneration + systemic / ….
Setting [28] is: group: developmental, developmental / developmental malformation / bone / enlarged fontanel + developmental / developmental malformation / bone / incomplete ….
Where [29] appears, read: group: maternal, systemic / in life observation / body weight / body weight gain.
Where [30] appears, read: systemic / pathology microscopic / spleen / hyperplasia + systemic / clinical chemistry / calcium / calcium + systemic / clinical chemistry….
[31] abbreviates: systemic / clinical chemistry / creatinine / creatinine + systemic / clinical chemistry / phosphorus / phosphorus + systemic / clinical ….
Where [32] appears, read: systemic / in life observation / clinical signs / general pallor + systemic / in life observation / clinical signs / lethargy + systemic / ….
Where [33] appears, read: group: developmental, developmental / developmental malformation / brain / dilated cerebral ventricle.
Where [34] appears, read: group: developmental, developmental / developmental malformation / brain / dilated cerebral ventricle + developmental / developmental malformation / bone / ….
[35] abbreviates: group: maternal, reproductive / reproductive performance / postimplantation loss / postimplantation loss + systemic / in life observation / body weight / ….
The mark [36] stands for this setting: systemic / clinical chemistry / chloride / chloride + systemic / hematology / eosinophils / eosinophils + systemic / hematology / ….
Where [37] appears, read: systemic / in life observation / body weight / body weight + systemic / in life observation / clinical signs / defecation (diarrhea) + ….
[38] abbreviates: group: developmental, systemic / in life observation / body weight / fetal weight.
Setting [39] is: group: maternal, reproductive / reproductive performance / postimplantation loss / postimplantation loss + reproductive / reproductive performance / ….
Setting [40] is: systemic / hematology / platelet / platelet + systemic / in life observation / clinical signs / hunched posture + systemic / pathology ….
The mark [41] stands for this setting: group: maternal, systemic / in life observation / body weight / body weight gain + systemic / in life observation / food consumption / food consumption + ….

We go through 7 compounds from EPA's ToxRefDB 2.

`O=C1O[C@H]([C@H](O)CO)C([O-])=C1O.[Na+]` [Sodium erythorbate (1:1)]: the NEL in data set [1] (systemic / in life observation / body weight / body weight gain + systemic / in life observation / mortality / mortality + systemic / …) is 3330 mg/kg/day; in data set [2] (setting [20]) it was under 1670 mg/kg/day. Besides, the LEL in data set [1] (systemic / in life observation / body weight / body weight gain + systemic / pathology microscopic / kidney / degeneration + systemic / …) came to 6670 mg/kg/day; in data set [2] (setting [20]), 1670 mg/kg/day. Also, the lowest observed adverse effect level (LOAEL) in data set [1] (setting [19]) is over 13300 mg/kg/day; in data set [2] (setting [21]), over 6670 mg/kg/day. For the same compound, the values for the no observed adverse effect level (NOAEL) in data set [1] (setting [19]) and in [2] (setting [21]) were at least 13300 mg/kg/day and at least 6670 mg/kg/day, respectively.

For `O=c1c(O)c(-c2ccc(O)c(O)c2)oc2cc(O)cc(O)c12` [Quercetin], the LEL in data set [3] is 200 mg/kg/day; in data set [4] (setting [22]), 40 mg/kg/day. Further, the LOAEL is over 2000 mg/kg/day in data set [3] and 1600 mg/kg/day in data set [4] (systemic / in life observation / body weight / body weight + systemic / in life observation / body weight / body weight gain + systemic / …). The figures for the NEL in data set [3] and in data set [4] (setting [22]) were 20 mg/kg/day and under 40 mg/kg/day, respectively. Moreover, the figures for the NOAEL in data set [3] and in data set [4] (systemic / in life observation / body weight / body weight + systemic / organ weight / kidney / relative to body weight + systemic / organ …) were at least 2000 mg/kg/day and 400 mg/kg/day, respectively.

For the compound `Clc1ccc(C(c2ccc(Cl)cc2)C(Cl)Cl)cc1` [p,p'-DDD], in data set [5], the LEL was 61.6 mg/kg/day, the LOAEL was over 123 mg/kg/day, the NEL is under 61.6 mg/kg/day and the NOAEL was at least 123 mg/kg/day. In data set [6], the LEL was found to be 42.5 mg/kg/day, the LOAEL was over 85 mg/kg/day, the NEL is under 42.5 mg/kg/day and the NOAEL was at least 85 mg/kg/day.

Consider `CC(CCl)OC(C)CCl` (stereo not drawn) [Bis(2-chloro-1-methylethyl) ether], for which, in data set [7] (setting [23]), the LOAEL is over 927 mg/kg/day, the NEL was 8.41 mg/kg/day and the no-observed-adverse-effect level (NOAEL) was at least 927 mg/kg/day. Also, in [7] (systemic / hematology / leukocyte (wbc) count differential / leukocyte (wbc)), the LEL was 40.1 mg/kg/day.

For `Cc1cc(C)nc(NC(=O)NS(=O)(=O)c2ccccc2C(=O)OC2COC2)n1` [Oxasulfuron], the LEL in [8] (setting [24]) stood at 10.7 mg/kg/day; in data set [9] (setting [26]), 0.84 mg/kg/day; in [10] (systemic / pathology microscopic / nerve / degeneration + systemic / pathology microscopic / spinal cord / degeneration + systemic / organ …), 99.1 mg/kg/day; in data set [11] (setting [28]), 1000 mg/kg/day; in data set [11] (setting [29]), 1000 mg/kg/day; in data set [12] (systemic / clinical chemistry / chloride / chloride + systemic / clinical chemistry / cholesterol / cholesterol), 15.3 mg/kg/day. Also, the lowest observed adverse effect level (LOAEL) was determined as 10.7 mg/kg/day in [8] (setting [24]); 83 mg/kg/day in [9] (setting [26]); 99.1 mg/kg/day in data set [10] (systemic / pathology microscopic / nerve / degeneration + systemic / pathology microscopic / spinal cord / degeneration); 1000 mg/kg/day in [11] (setting [28]); 1000 mg/kg/day in [11] (setting [29]); 316 mg/kg/day in data set [12] (systemic / pathology microscopic / spleen / hyperplasia). The NEL in [8] (setting [25]) is 1.3 mg/kg/day; in [9] (setting [26]), under 0.84 mg/kg/day; in data set [10] (setting [27]) it was 1.5 mg/kg/day; in data set [11] (setting [28]), 300 mg/kg/day; in [11] (setting [29]) it was 300 mg/kg/day; in data set [12] (setting [30]), 0.62 mg/kg/day. Moreover, the NOAEL in data set [8] (setting [25]) was 1.3 mg/kg/day; in data set [9] (systemic / clinical chemistry / gamma glutamyl transferase (ggt) / gamma glutamyl transferase (ggt) + systemic / pathology microscopic / …), 8.3 mg/kg/day; in data set [10] (setting [27]), 1.5 mg/kg/day; in data set [11] (setting [28]), 300 mg/kg/day; in [11] (setting [29]), 300 mg/kg/day; in [12] (setting [30]), 15.3 mg/kg/day.

For `O=c1c(C2CC(c3ccc(-c4ccc(Br)cc4)cc3)Cc3ccccc32)c(O)sc2ccccc12` (stereo not drawn) [Difethialone], in data set [13] (setting [31]), the LEL worked out at 0.002 mg/kg/day and the NEL was under 0.002 mg/kg/day. For the same compound, in data set [13] (setting [32]), the lowest-observed-adverse-effect level (LOAEL) was 0.008 mg/kg/day and the NOAEL worked out at 0.004 mg/kg/day.

As for `N#C[C@@H]1CC(F)(F)CN1C(=O)CNC1CC2CCC(C1)N2c1ncccn1` (stereo partly drawn), the LEL in data set [14] (setting [33]) came to 100 mg/kg/day; in data set [14] (setting [29]) it was 100 mg/kg/day; in data set [15] (setting [37]), 3 mg/kg/day; in data set [16] (setting [38]) it was 500 mg/kg/day; in data set [16] (setting [39]) it was 500 mg/kg/day; in data set [17] (setting [40]) it was 50 mg/kg/day. Also, the LEL was determined as 100 mg/kg/day in data set [18] (setting [38]) and 200 mg/kg/day in data set [18] (setting [41]). Also, the lowest observed adverse effect level (LOAEL) in [14] (setting [33]) was 100 mg/kg/day; in data set [14] (setting [35]), 150 mg/kg/day; in data set [15] (setting [36]), over 30 mg/kg/day; in [16] (setting [38]) it was over 1500 mg/kg/day; in data set [16] (setting [39]), over 1500 mg/kg/day; in [17] (setting [23]), over 450 mg/kg/day. Also, the lowest-observed-adverse-effect level (LOAEL) in data set [18] (setting [38]) amounted to 100 mg/kg/day; in data set [18] (setting [41]), 200 mg/kg/day. The NEL was 50 mg/kg/day in data set [14] (setting [34]); 50 mg/kg/day in [14] (setting [35]); under 3 mg/kg/day in [15] (setting [37]); under 500 mg/kg/day in data set [16] (setting [38]); under 500 mg/kg/day in [16] (setting [39]); under 50 mg/kg/day in data set [17] (setting [40]). Further, the results for the NEL in [18] (setting [38]) and in data set [18] (setting [41]) were under 100 mg/kg/day and 100 mg/kg/day, respectively. In addition, the NOAEL is 50 mg/kg/day in data set [14] (setting [34]); 100 mg/kg/day in data set [14] (setting [35]); at least 30 mg/kg/day in [15] (setting [36]); at least 1500 mg/kg/day in data set [16] (setting [38]); at least 1500 mg/kg/day in data set [16] (setting [39]); at least 450 mg/kg/day in data set [17] (setting [23]). Besides, the NOAEL in data set [18] (setting [38]) was under 100 mg/kg/day; in data set [18] (setting [41]) it was 100 mg/kg/day.
